Patent US10034886B2, “GLP-1 receptor modulators” (Celgene International II SÀRL, priority 2014, dated 2018)
Where two headings read alike, the source gives them in different places.

Target: T1, GLP-1R (Homo sapiens, UniProt P43220)
T1 construct: host or cells: GLP-1R CRE-bla CHO-K1 cells
Assay: EC20 GLP-1(9-36) PAM cAMP assay: dose response of compound in the presence of fixed concentration of GLP-1(9-36)
Type: cell-based
Conditions: GLP-1R CRE-bla CHO-K1 cells, read-out: EC20 GLP-1(9-36) PAM EC50
Procedure, shortened: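 GLP-1R CRE-bla CHO-K1 cells treated 30 min at 37 °C with 12-point compound dose response plus fixed EC20 GLP-1(9-36), with IBMX, in HBSS/HEPES/0.1% BSA pH 7.4. Total cAMP measured by luminescent detection against standard curve; EC50 and Emax from non-linear regression.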

[1] = dose response of compound in presence of fixed concentration of GLP-1(9-36)
[2] = compound dose response with fixed concentration of GLP-1(9-36)

T1 sequence (P43220 24-463): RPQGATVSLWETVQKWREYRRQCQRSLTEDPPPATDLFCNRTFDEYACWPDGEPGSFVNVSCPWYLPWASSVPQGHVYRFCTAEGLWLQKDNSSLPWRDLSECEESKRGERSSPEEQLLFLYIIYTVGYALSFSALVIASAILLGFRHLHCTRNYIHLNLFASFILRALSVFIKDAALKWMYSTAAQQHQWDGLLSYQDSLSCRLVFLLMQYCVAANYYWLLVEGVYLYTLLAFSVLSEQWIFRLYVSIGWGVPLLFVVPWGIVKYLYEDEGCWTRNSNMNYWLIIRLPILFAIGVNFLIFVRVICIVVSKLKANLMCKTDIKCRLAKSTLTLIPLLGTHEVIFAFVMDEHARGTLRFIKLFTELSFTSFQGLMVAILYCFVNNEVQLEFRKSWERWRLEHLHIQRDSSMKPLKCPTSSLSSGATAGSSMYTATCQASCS
T1 sequence (P01275 100-127 partner limits assumed): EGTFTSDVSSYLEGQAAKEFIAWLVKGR

SMILES: CCCCCCCOc1ccc(-c2cnc(-c3ccc(C[C@H](NC(=O)c4ccc(C(C)(C)C)s4)C(=O)NC(C(=O)O)C(O)c4cn(C)cn4)cc3)nc2)cc1 (stereo partly drawn) [Compound 906]
- EC50 [1]: 2500 to 5000 nM

SMILES: CC(C)(C)c1ccc(C(=O)N[C@@H](Cc2ccc(-c3ncc(-c4ccc(-c5ccc(C(F)(F)F)cc5)cc4F)cn3)cc2)C(=O)O)s1 [Compound 1364]
- EC50 [2]: < 800 nM

SMILES: CCCCCCCOc1ccc(-c2cnc(-c3ccc(C[C@H](NC(=O)c4ccc(C(C)(C)C)cc4)C(=O)NCC(Cc4ccc(O)cc4)C(=O)O)cc3)nc2)cc1 (stereo partly drawn) [Compound 558]
- EC50 [1]: < 800 nM

SMILES: CCCCCCCOc1ccc2nc(-c3ccc(C[C@H](NC(=O)c4ccc(C(C)(C)C)cc4)C(=O)N[C@H](C)C(=O)O)cc3)ccc2c1 [Compound 806]
- EC50 [1]: 800 to 2500 nM

SMILES: Cc1ccc(/C=C/c2cnc(-c3ccc(C[C@H](NC(=O)c4ccc(C(C)(C)C)s4)C(=O)N4CC(C(=O)O)C4)cc3)nc2)cc1 [Compound 1091]
- EC50 [1]: 800 to 2500 nM

SMILES: CCCCCCNc1ccc(-c2cnc(-c3ccc(C[C@H](NC(=O)c4ccc(C(C)(C)C)cc4)C(=O)NCCC(=O)O)cc3)nc2)cc1 [Compound 686]
- EC50 [1]: 2500 to 5000 nM

SMILES: CCCCCCCOc1ccc(-c2cnc(-c3ccc(C[C@H](NC(=O)c4ccc(C(C)(C)C)cc4)C(=O)NC(C)CC(=O)O)cc3)nc2)cc1 (stereo partly drawn) [Compound 537]
- EC50 [1]: 5000 to 10000 nM

SMILES: CCCc1ccc(-c2ccc(-c3cnc(-c4ccc(C[C@H](NC(=O)c5ccc(C6CC6)s5)C(=O)N5CC(C(=O)O)C5)cc4)nc3)c(F)c2)cc1 [Compound 1406]
- EC50 [2]: < 800 nM

SMILES: CCCCOCCOc1ccc(-c2cnc(-c3ccc(C[C@H](NC(=O)c4ccc(C(C)(C)C)cc4)C(=O)NCCC(=O)O)cc3)nc2)cc1 [Compound 457]
- EC50 [1]: 2500 to 5000 nM

SMILES: CC[C@H]1CC[C@H](c2ccc(-c3cnc(-c4ccc(C[C@H](NC(=O)c5ccc(C(C)(C)C)s5)C(=O)N[C@H](C(=O)O)[C@@H](C)O)cc4)nc3)cc2)CC1 [Compound 1327]
- EC50 [2]: < 800 nM

SMILES: CCCCCCCOc1ccc(-c2cnc(-c3ccc(C[C@H](NC(=O)c4ccc(C(C)(C)C)s4)C(=O)N[C@H](C(=O)O)C(C)c4ccccc4)cc3)nc2)cc1 (stereo partly drawn) [Compound 899]
- EC50 [1]: 2500 to 5000 nM

SMILES: CCCCCCCOc1ccc(-c2cnc(-c3ccc(C[C@H](NC(=O)c4ccc(C(C)(C)C)cc4)C(=O)N[C@@H](CC(=O)N[C@@H](C)C(=O)O)C(=O)O)cc3)nc2)cc1 [Compound 483]
- EC50 [1]: 800 to 2500 nM

SMILES: CCCCCCCOc1ccc(-c2cnc(-c3ccc(C[C@H](NC(=O)c4ccc(C(C)(C)C)cc4)C(=O)N[C@@H](CC(=O)NCCN)C(=O)O)cc3)nc2)cc1 [Compound 484]
- EC50 [1]: 800 to 2500 nM

SMILES: C[C@@H](NC(=O)[C@H](Cc1ccc(-c2ncc(-c3ccc4c(c3)C(=O)c3ccccc3-4)cn2)cc1)NC(=O)c1ccc(C(C)(C)C)s1)C(=O)O [Compound 1290]
- EC50 [2]: 2500 to 5000 nM

SMILES: COc1ccc(-c2cnc(-c3ccc(C[C@H](NC(=O)c4ccc(C(C)(C)C)s4)C(=O)N4CC(C(=O)O)C4)cc3)nc2)cc1 [Compound 784]
- EC50 [1]: 5000 to 10000 nM

SMILES: CCCCCCCOc1ccc(-c2cnc(-c3ccc(C[C@H](NC(=O)c4ccc(CC(C)C)cc4)C(=O)N4CCC[C@H]4C(=O)O)cc3)nc2)cc1 [Compound 1076]
- EC50 [1]: 2500 to 5000 nM

SMILES: CC(C)(C)c1ccc(C(=O)N[C@@H](Cc2ccc(-c3ncc(-c4nc(CCc5ccccc5)no4)cn3)cc2)C(=O)NCCC(=O)O)cc1 [Compound 746]
- EC50 [1]: 2500 to 5000 nM

SMILES: CCCCCCCOc1ccc(-c2cnc(-c3ccc(C[C@H](NC(=O)c4ccc(C(C)(C)C)s4)C(=O)N4CCCN(C)CC4)cc3)nc2)cc1 [Compound 963]
- EC50 [1]: 5000 to 10000 nM

SMILES: CCC[C@H]1CC[C@H](C2CC(=O)N(c3cnc(-c4ccc(C[C@H](NC(=O)c5ccc(C(C)(C)C)s5)C(=O)N5CC(C(=O)O)C5)cc4)nc3)C(=O)C2)CC1 [Compound 1512]
- EC50 [2]: < 800 nM

SMILES: C[C@@H](NC(=O)[C@H](Cc1ccc(-c2ncc(-c3ccc(OCc4ccccc4)c(F)c3)cn2)cc1)NC(=O)c1ccc(C(C)(C)C)s1)C(=O)O [Compound 994]
- EC50 [1]: 800 to 2500 nM

SMILES: CC(C)(C)c1ccc(C(=O)N[C@@H](Cc2ccc(-c3ncc(-c4ccc(-c5ccc(C6CC6)cc5)cc4F)cn3)cc2)C(=O)N2CC(C(=O)O)C2)s1 [Compound 1209]
- EC50 [2]: < 800 nM

SMILES: C[C@@H](NC(=O)[C@H](Cc1ccc(-c2ncc(/C=C/c3ccc(C(F)(F)F)cc3)cn2)cc1)NC(=O)c1ccc(C(C)(C)C)s1)C(=O)O [Compound 1252]
- EC50 [2]: 800 to 2500 nM

SMILES: CCCc1ccc(-c2ccc(-c3cnc(-c4ccc(C[C@H](NC(=O)c5ccc(CC(C)C)s5)C(=O)N5CC(C(=O)O)C5)cc4)nc3)c(F)c2)cc1 [Compound 1405]
- EC50 [2]: < 800 nM

SMILES: CCCCCCCOc1ccc(-c2cnc(-c3ccc(C[C@H](NC(=O)c4ccc(C5CC5)s4)C(=O)N[C@H](C)C(=O)O)cc3)nc2)cc1 [Compound 842]
- EC50 [1]: 800 to 2500 nM

SMILES: Cc1cc(-c2ccc(-c3cnc(-c4ccc(C[C@H](NC(=O)c5ccc(C(C)(C)C)s5)C(=O)N5CC(C(=O)O)C5)cc4)nc3)c(F)c2)ccc1C(F)(F)F [Compound 1225]
- EC50 [2]: < 800 nM

SMILES: CCCCCCCOc1ccc(-c2cnc(-c3ccc(C[C@H](NC(=O)c4ccc(C(C)(C)C)cc4)C(=O)N4C[C@@H](O)C[C@@H]4C(=O)O)cc3)nc2)cc1 [Compound 586]
- EC50 [1]: < 800 nM

SMILES: CC[C@H]1CC[C@H](c2ccc(-c3cnc(-c4ccc(C[C@H](NC(=O)c5ccc(C(C)C)s5)C(=O)O)cc4)nc3)cc2)CC1 [Compound 1389]
- EC50 [2]: < 800 nM

SMILES: CC(C)c1ccc(-c2ccc(-c3cnc(-c4ccc(C[C@H](NC(=O)c5ccc(C(C)(C)C)s5)C(=O)N5CC(C(=O)O)C5)cc4)nc3)cc2)cc1 [Compound 1395]
- EC50 [2]: < 800 nM

SMILES: C[C@@H](NC(=O)[C@H](Cc1ccc(-c2ncc(-c3ccc(SC4CC4)cc3)cn2)cc1)NC(=O)c1ccc(C(C)(C)C)s1)C(=O)O [Compound 1301]
- EC50 [2]: 5000 to 10000 nM

SMILES: CCc1ccc(CCc2cnc(-c3ccc(C[C@H](NC(=O)c4ccc(C(C)(C)C)s4)C(=O)N[C@H](C)C(=O)O)cc3)nc2)cc1 [Compound 1274]
- EC50 [2]: 2500 to 5000 nM

SMILES: CC(C)(C)c1ccc(C(=O)N[C@@H](Cc2ccc(-c3ncc(N4CCC(c5cccc(Br)c5)CC4)cn3)cc2)C(=O)N2CC(C(=O)O)C2)s1 [Compound 1488]
- EC50 [2]: 800 to 2500 nM

SMILES: CCCCCCCOc1ccc(-c2cnc(-c3ccc(C[C@H](NC(=O)c4ccc(OC(C)C)cc4)C(=O)NC(C(=O)O)C(O)c4ccccc4)cc3)nc2)cc1 (stereo partly drawn) [Compound 950]
- EC50 [1]: 800 to 2500 nM

SMILES: CCCCCCOc1cccc(-c2noc(-c3cnc(-c4ccc(C[C@H](NC(=O)c5ccc(C(C)(C)C)cc5)C(=O)NCCC(=O)O)cc4)nc3)n2)c1 [Compound 760]
- EC50 [1]: 800 to 2500 nM

SMILES: CCCCCCCOc1ccc(-c2cnc(-c3ccc(C[C@H](NC(=O)c4ccc(C(C)(C)C)cc4)C(=O)N4C[C@H](OC(C)(C)C)C[C@H]4C(=O)O)cc3)nc2)cc1 [Compound 623]
- EC50 [1]: 800 to 2500 nM

SMILES: CCCCCCCOc1ccc(-c2cnc(-c3ccc(C[C@H](NC(=O)c4ccc(C(C)(C)C)s4)C(=O)NC[C@@H](CO)C(=O)O)cc3)nc2)cc1 [Compound 461]
- EC50 [1]: 800 to 2500 nM

SMILES: CC[C@H]1CC[C@H](c2ccc(-c3cnc(-c4ccc(C[C@H](NC(=O)c5ccc(C6CC6)s5)C(=O)N5CC(C(=O)O)C5)cc4)nc3)cc2)CC1 [Compound 1154]
- EC50 [1]: < 800 nM

SMILES: CCCCCCCOc1ccc(-c2cnc(-c3ccc(C[C@H](NC(=O)c4ccc(C(C)(C)C)s4)C(=O)NS(=O)(=O)CC(=O)O)cc3)nc2)cc1 [Compound 434]
- EC50 [1]: 800 to 2500 nM

SMILES: CC[C@H]1CC[C@H](c2ccc(-c3cnc(-c4ccc(C[C@H](NC(=O)c5cc6cc(OC)ccc6[nH]5)C(=O)N5CC(C(=O)O)C5)cc4)nc3)cc2)CC1 [Compound 1166]
- EC50 [1]: < 800 nM

SMILES: CCCCCCCOc1ccc(-c2cnc(-c3ccc(C[C@H](NC(=O)c4ccc(C(C)(C)C)cc4)C(=O)NC(CCCC(=O)O)C(=O)O)cc3)nc2)cc1 (stereo partly drawn) [Compound 573]
- EC50 [1]: 800 to 2500 nM

SMILES: CCCCCCCOc1ccc(-c2cnc(-c3ccc(C[C@H](NC(=O)c4ccc(C(C)(C)C)cc4OCC)C(=O)N4CC(C(=O)O)C4)cc3)nc2)cc1 [Compound 1100]
- EC50 [1]: 2500 to 5000 nM

SMILES: CCCCCCCOc1ccc(-c2cnc(-c3ccc(C[C@H](NC(=O)c4ccc(C(C)(C)C)cc4)C(=O)N[C@@H](CC(=O)O)C(=O)N(C)CCN(C)C)cc3)nc2)cc1 [Compound 505]
- EC50 [1]: 800 to 2500 nM

SMILES: CCCCCCCOc1ccc(-c2cnc(-c3ccc(C[C@H](NC(=O)c4ccc(C(C)(C)C)cc4)C(=O)NC(C(=O)O)c4c(C)n[nH]c4C)cc3)nc2)cc1 (stereo partly drawn) [Compound 549]
- EC50 [1]: < 800 nM

SMILES: CCC[C@H]1CC[C@H](C2CCN(c3cnc(-c4ccc(CC(NC(=O)c5ccc(C(C)(C)C)s5)C(=O)NS(=O)(=O)CC)cc4)nc3)CC2)CC1 (stereo partly drawn) [Compound 1539]
- EC50 [2]: 2500 to 5000 nM

SMILES: CCCCCCc1ccc(-c2cnc(-c3ccc(C[C@H](NC(=O)c4ccc(C(C)(C)C)cc4)C(=O)NCCC(=O)O)cc3)nc2)cc1 [Compound 678]
- EC50 [1]: 800 to 2500 nM

SMILES: CCC[C@H]1CC[C@H](C2CCN(c3cnc(-c4ccc(C[C@H](NC(=O)c5ccc(C(C)(C)C)s5)C(=O)N[C@H](CN)C(=O)O)cc4)nc3)CC2)CC1 [Compound 1473]
- EC50 [2]: < 800 nM

SMILES: CCCCCCCOc1ccc(-c2nc(-c3ccc(C[C@H](NC(=O)c4ccc(C(C)(C)C)cc4)C(=O)N[C@H](C)C(=O)O)cc3)no2)cc1 [Compound 801]
- EC50 [1]: 5000 to 10000 nM

SMILES: CCCCCCCOc1ccc(-c2cnc(-c3ccc(C[C@H](NC(=O)c4ccc(C(C)(C)C)cc4)C(=O)N4CCC[C@@H](C(=O)O)[C@H]4C)cc3)nc2)cc1 [Compound 583]
- EC50 [1]: 5000 to 10000 nM

SMILES: CCCCCCCOc1ccc(-c2cnc(-c3ccc(C[C@H](NC(=O)c4ccc(CC)s4)C(=O)N4CCC[C@H]4C(=O)O)cc3)nc2)cc1 [Compound 1072]
- EC50 [1]: 800 to 2500 nM

SMILES: CC[C@H]1CC[C@H](c2ccc(-c3cnc(-c4ccc(C[C@H](NC(=O)c5ccc(N(C)C)cc5)C(=O)O)cc4)nc3)cc2)CC1 [Compound 1380]
- EC50 [2]: 800 to 2500 nM

SMILES: CCCCCCCOc1ccc(-c2cnc(-c3ccc(C[C@H](NC(=O)c4ccc(S(C)(=O)=O)cc4)C(=O)N[C@H](C)C(=O)O)cc3)nc2)cc1 [Compound 816]
- EC50 [1]: 800 to 2500 nM

SMILES: CCCCCCCOc1ccc(-c2cnc(-c3ccc(C[C@H](NC(=O)c4ccc(C(C)(C)C)cc4)C(=O)N[C@H](CC)C(=O)O)cc3)nc2)cc1 [Compound 498]
- EC50 [1]: 800 to 2500 nM
